Test: xn = mol fraction of the nth substance listed
Conditions: for surface tension liquid-gas: Wilhelmy-plate method; for viscosity / mass density: 101 kPa, Liquid; for viscosity: Falling or rolling sphere viscometry; for mass density: Vibrating tube method

C1CCOCC1 [tetrahydropyran] + CC(C)CC(C)(C)C
Conditions	mass density [kg/m3]	surface tension liquid-gas [mN/m]	viscosity [mPa·s]
293.15 K, x1 = 0.0502	697.82	18.9	0.506
293.15 K, x1 = 0.1	703.85	19	0.514
293.15 K, x1 = 0.1499	710.17	19.2	0.524
293.15 K, x1 = 0.2	716.8	19.4	0.533
293.15 K, x1 = 0.25	723.72	19.6	0.544
293.15 K, x1 = 0.3	730.98	19.8	0.553
293.15 K, x1 = 0.35	738.59	20.1	0.564
293.15 K, x1 = 0.4	746.55	20.3	0.577
293.15 K, x1 = 0.4498	754.88	20.6	0.592
293.15 K, x1 = 0.5001	763.72	20.9	0.606
293.15 K, x1 = 0.5501	772.97	21.2	0.623
293.15 K, x1 = 0.5999	782.67	21.6	0.638
293.15 K, x1 = 0.6501	793	22	0.655
293.15 K, x1 = 0.6999	803.82	22.5	0.675
293.15 K, x1 = 0.75	815.32	23.1	0.696
293.15 K, x1 = 0.8	827.51	23.6	0.718
293.15 K, x1 = 0.8501	840.43	24.3	0.743
293.15 K, x1 = 0.9	854.12	25.2	0.771
293.15 K, x1 = 0.95	868.68	26.3	0.803
293.15 K, x1 = 1	884.27	27.5	0.86
303.15 K, x1 = 0.0502	689.38	18	0.452
303.15 K, x1 = 0.1	695.35	18.2	0.455
303.15 K, x1 = 0.1499	701.6	18.3	0.463
303.15 K, x1 = 0.2	708.16	18.6	0.47
303.15 K, x1 = 0.25	715.01	18.8	0.478
303.15 K, x1 = 0.2999	722.17	19	0.488
303.15 K, x1 = 0.3498	729.67	19.2	0.497
303.15 K, x1 = 0.3998	737.56	19.5	0.509
303.15 K, x1 = 0.4498	745.84	19.7	0.52
303.15 K, x1 = 0.5001	754.6	20	0.533
303.15 K, x1 = 0.5501	763.76	20.3	0.546
303.15 K, x1 = 0.5999	773.38	20.6	0.56
303.15 K, x1 = 0.6501	783.61	21	0.574
303.15 K, x1 = 0.6999	794.32	21.5	0.59
303.15 K, x1 = 0.75	805.72	22.1	0.607
303.15 K, x1 = 0.8	817.78	22.6	0.625
303.15 K, x1 = 0.8501	830.59	23.3	0.646
303.15 K, x1 = 0.9	844.14	24.2	0.67
303.15 K, x1 = 0.95	858.58	25.2	0.699
303.15 K, x1 = 1	874.07	26.2	0.749
313.15 K, x1 = 0.0501	680.92	17.1	0.407
313.15 K, x1 = 0.1002	686.85	17.3	0.411
313.15 K, x1 = 0.1501	693.02	17.5	0.416
313.15 K, x1 = 0.1999	699.48	17.7	0.422
313.15 K, x1 = 0.2501	706.27	17.9	0.429
313.15 K, x1 = 0.3	713.35	18.1	0.437
313.15 K, x1 = 0.3499	720.78	18.4	0.444
313.15 K, x1 = 0.4002	728.64	18.6	0.453
313.15 K, x1 = 0.4502	736.83	18.9	0.463
313.15 K, x1 = 0.4999	745.4	19.1	0.473
313.15 K, x1 = 0.5499	754.47	19.4	0.484
313.15 K, x1 = 0.6	764.05	19.7	0.496
313.15 K, x1 = 0.65	774.13	20.1	0.509
313.15 K, x1 = 0.6998	784.75	20.6	0.523
313.15 K, x1 = 0.75	796.05	21.2	0.538
313.15 K, x1 = 0.8001	808	21.7	0.554
313.15 K, x1 = 0.8501	820.66	22.4	0.573
313.15 K, x1 = 0.9001	834.12	23.2	0.596
313.15 K, x1 = 0.9498	848.37	24.1	0.624
313.15 K, x1 = 1	863.76	25.1	0.658
323.15 K, x1 = 0.0501	672.44	16.4	0.366
323.15 K, x1 = 0.1002	678.3	16.6	0.369
323.15 K, x1 = 0.1501	684.41	16.7	0.372
323.15 K, x1 = 0.1999	690.79	17	0.377
323.15 K, x1 = 0.2501	697.5	17.2	0.383
323.15 K, x1 = 0.3	704.51	17.3	0.39
323.15 K, x1 = 0.3499	711.86	17.5	0.398
323.15 K, x1 = 0.4002	719.63	17.8	0.406
323.15 K, x1 = 0.45	727.72	18	0.415
323.15 K, x1 = 0.5002	736.27	18.3	0.424
323.15 K, x1 = 0.55	745.22	18.5	0.433
323.15 K, x1 = 0.5997	754.63	18.8	0.443
323.15 K, x1 = 0.65	764.68	19.2	0.454
323.15 K, x1 = 0.6998	775.17	19.6	0.466
323.15 K, x1 = 0.75	786.37	20.1	0.479
323.15 K, x1 = 0.8001	798.2	20.7	0.493
323.15 K, x1 = 0.8501	810.77	21.3	0.508
323.15 K, x1 = 0.9002	824.1	22.1	0.523
323.15 K, x1 = 0.95	838.27	22.9	0.541
323.15 K, x1 = 1	853.46	23.8	0.565

From the NIST ThermoML archive (doi:10.1016/j.jct.2010.08.019)
